System: Legionella

OCl [sodium hypochlorite]
Legionella test of bath water: detected | Count of the bacteria of the genus Legionella in bath water (start 300 CFU/100 ml, free residual chlorine max 2 mg/l for 2 hours, then 3 days at sodium hypochlorite 0.4 mg/l, 2000 bathers per day): 1300 CFU/100 ml

From patent US20040029758A1 (priority 2000, published 2004)
